Assays:
Assay type in all cases: cell-based, human
FaDu cells [1] = assay: Cell growth of hTR antisense transfected cells; conditions: stably transfected FaDu cells
Description: Transfection procedures. Transfection of the antisense construct used an IPTG-inducible mammalian expression system, i.e., the LacSwitch II system (Stratagene), which consists of a recombinant vector (i.e., pOPRSVI) and an operator vector (i.e., pCMVLacI). The pOPRSVI vector contains both ampicillin and G418^r resistance genes which facilitate the selection of positive clones from E. Coli and eukaryotic cells. The 8 unique cloning sites of the vector facilitate bi-directional insertion of a cDNA to produce either sense or antisense transcripts. The Lac repressor vector (pCMVLacI) produces the Lac repressor protein, which binds to and inhibits the operator sequence in the pOPRSVI vector and thereby inhibits the expression of the inserted gene. IPTG decreases the binding affinity of the Lac repressor protein to the operator sequence and triggers transcription and expression of the inserted gene. The transfection procedures consisted of stable transfection of FaDu cells with first, the pCMVLacI vector, and then second, the pOPRSVI/MCS vector which contained an antisense or sense hTR fragment. Transfection was performed using Lipofectamine-mediated gene transfer. The selection of the clones expressing the pCMVLacI repressor construct was performed using […] of the antibiotic hygromycin. The selection of the clones expressing the pOPRSVI vector using G418. […]

FaDu cells [2] = assay: TALA telomere length in hTR antisense transfected cells
telomerase (hTR) = assay: Improved TRAP telomerase activity in hTR antisense transfected cells
Procedure: First, the extraction procedures in the conventional TRAP were not sufficient to completely lyse the cell nuclei and the extraction efficiency varied with the ratio between the volume of the extraction buffer and the volume of cells. […] For the preparation of cell and tissue extracts, cells and tissue were harvested, washed, and stored at −70° C. Cells were then lysed in a SDS-based lysis buffer (10 mM Tris.HCl, pH 7.5, 1 mM MgCl2, 1 mM EGTA, 0.1 mM phenylmethylsulfonyl fluoride, 5 mM β-mercaptoethanol, 0.1% CHAPS, and 10% glycerol), on ice for 10 min. To this mixture, three volumes of CHAPS-based buffer (10 mM Tris-HCl, pH 7.5, 1 mM MgCl2, 1 mM EGTA, 0.1 mM phenylmethylsulfonyl fluoride, 5 mM β-mercaptoethanol, 0.5% CHAPS, and 10% glycerol) were added and kept on ice for 5 min. SDS is a strong detergent which can completely lyse the cell including the nucleus. […] The protein concentration of the supernatant was determined using Bicinchoninic Acid Kit (Sigma, St Louis, Mo.). […] Samples with equal amounts of protein (1-2 μg) were analyzed by TRAP. In this assay, the enzyme activity is measured as the synthesis of repeating telomere hexamers (TTAGGG; SEQ ID NO: 10). […]

[3] = system: telomerase activity of FaDu cells; assay: TRAP telomerase activity in drug-treated cells; conditions: cisplatin treatment, 48 to 96 hr
Procedure: For the preparation of cell and tissue extracts, cells and tissue were harvested, washed, and stored at −70° C. Cells were then lysed in a SDS-based lysis buffer (10 mM Tris.HCl, pH 7.5, 1 mM MgCl2, 1 mM EGTA, 0.1 mM phenylmethylsulfonyl fluoride, 5 mM β-mercaptoethanol, 0.1% CHAPS, and 10% glycerol), on ice for 10 min. To this mixture, three volumes of CHAPS-based buffer (10 mM Tris-HCl, pH 7.5, 1 mM MgCl2, 1 mM EGTA, 0.1 mM phenylmethylsulfonyl fluoride, 5 mM β-mercaptoethanol, 0.5% CHAPS, and 10% glycerol) were added and kept on ice for 5 min. […] For the extraction of tissues, tissues were homogenized in SDS-based lysis buffer with a Kontes pellet pestle (Fisher, Pittsburgh, Pa.), mixed with three volumes of CHAPS-based buffer, and centrifuged were centrifuged at 8,000 g for 15 min at 4° C. The supernatant was kept at −20° C. The protein concentration of the supernatant was determined using Bicinchoninic Acid Kit (Sigma, St Louis, Mo.). The protein concentration was adjusted to 0.5 μg/μl with CHAPS-based buffer. Samples with equal amounts of protein (1-2 μg) were analyzed by TRAP. […] The TRAP reaction mixture contained 2-4 μl of protein extract, 20 mM Tris.HCl (pH 8.3), 1.5 mM MgCl2, 63 mM KCl, 0.005% Tween-20, 1 mM EGTA, 50 μM dNTPs, 0.1 μg of TS primer, 0.1 mg/ml bovine serum albumin. The mixture was incubated at 30° C. for 30 min, then at 90° C. for 2 min.
This was accomplished by using phenol/chloroform extraction of the cell lysate, as follows. One μg of tRNA and 0.1 ng internal control template were added to the reaction solution after primer extension. The total volume of the mixture was brought to 100 μl with water, mixed with an equal volume of buffer saturated phenol (Life Technology) and then centrifuged at 18,000 g for 3 min, at room temperature. The top aqueous layer (90 μl) was carefully transferred to a new tube and mixed with an equal volume of chloroform:isoamyl alcohol (24:1) solution and centrifuged at 18,000 g for 3 min, at room temperature. The top aqueous layer (80 μl) was again transferred to a new tube and the nucleotides were precipitated with 0.2 volume of 3 M sodium acetate (pH 5.3) and 3 volume of 100% ethanol at −70° C. for at least 2 hr. The mixture was centrifuged at 18,000 g for 15 min at 4° C. […]
The template for the internal standard was amplified by PCR and purified by spin columns (QIAquick PCR purification kit, Qiagen, Valencia, Calif.). The concentration was determined by a spectrophotometer.
PCR was performed on the GeneAmp PCR system 2400 (Perkin Elmer) and initiated by 1 cycle at 94° C. for 3 min, 50° C. for 4 min, and 68° C. for 2 min, then 25 rounds at 94° C. for 30 sec, 50° C. for 30 sec, and 68° C. for 90 sec, followed by 68° C. for 10 min. […] The gel was then dried and the amplification products were detected. […]

FaDu cells [4] = assay: Cell detachment from the growth surface
Procedure: Upon drug treatment, the supernatant along with two subsequent Versene rinses, which contained the detached cells, were collected. […] These samples were centrifuged at 1500 rpm for 10 min and the resulting cell pellets were resuspended in 2 ml of culture media. The cell number in the detached and attached fractions were counted using a Coulter counter (Coulter Electronic, Inc., Hialeah, Fla.).
Treatment with the above agents was initiated after cells were allowed to attach to the growth surface in culture flasks. On the day of experiments, the culture medium was removed and replaced with drug-containing medium. […] For d4T, two concentrations, 20 μM and 40 μM were used.
Agent effect was measured in three ways, i.e., enumeration of the number of cells that remained attached in culture flask, enumeration of the number of cells that detached from the growth surface, and by measuring changes in apoptosis. […] The drug-induced detachment of cells from the growth surface was determined by counting the attached and detached cells.

CC(C)S[C@@H]1O[C@H](CO)[C@H](O)[C@H](O)[C@H]1O [+IPTG]
Doubling time (FaDu cells [1]): 23 h
Terminal restriction fragment (FaDu cells [2]): 2.91 kb
telomerase activity (telomerase (hTR)): 98.9 % of control

N.N.[Cl][Pt][Cl] [cisplatin]
telomerase activity [3]: 50 % of the baseline level

Cc1cn([C@H]2C=C[C@@H](CO)O2)c(=O)[nH]c1=O [d4T, 3′-deoxy-2′,3′-didehydrothymidine]
detachment of cells from the growth surface (FaDu cells [4]; d4T 20 μM and 40 μM): < 8%
effect of addition of d4T to paclitaxel on detached cell fraction (FaDu cells [4]; d4T 20 or 40 μM): significantly enhanced the detached cell fraction

Source: US7662361B2, “Methods and compositions for modulating drug activity through telomere damage” (priority 1999, dated 2010)
